Activity calls are given as the source filed them. The rule behind the calls is not given here.
Key:
Plasmodium falciparum [1] = test: Relative activity against Plasmodium falciparum D6 (Sierra Leone) compared to artemisinin; type: functional
Plasmodium falciparum [2] = test: Relative activity against Plasmodium falciparum W2 Indochina compared to artemisinin; type: functional
Plasmodium falciparum [3] = test: In vitro relative potency against Plasmodium falciparum Sierra Leone D6; type: functional
Plasmodium falciparum [4] = test: Relative activity compared to artemisinin against Plasmodium falciparum Indochina W2; type: functional
Plasmodium falciparum [5] = test: Relative activity compared to artemisinin against Plasmodium falciparum Sierra Leone D6; type: functional
Plasmodium falciparum [6] = test: Relative activity compared to artemisinin against Plasmodium falciparum Indochina W-2; Not active; type: functional, organism-based
Plasmodium falciparum [7] = test: Relative activity compared to artemisinin against Plasmodium falciparum D6 (Sierra Leone); Not active; type: functional, organism-based

SMILES	Relative activity (Plasmodium falciparum [1])	Relative activity (Plasmodium falciparum [2])	other results
CC(C)CCC[C@H]1C(=O)O[C@@H]2O[C@@]3(C)CC[C@H]4[C@H](C)CC[C@@H]1[C@@]24OO3	0.31	0.74	–
CO[C@@H]1O[C@@]2(C)CC[C@H]3CCCC[C@]31OO2	–	–	Relative activity (Plasmodium falciparum [3]): 0.13
C[C@@H]1CC[C@H]2[C@@H](C)C(=O)O[C@@H]3O[C@@]4(C)CC[C@@H]1[C@]32O4 [DEOXYARTEMISININ]	–	–	Relative activity (Plasmodium falciparum [4]): 0.001; Relative activity (Plasmodium falciparum [5]): 0.001
C/C=C\CC1C(=O)O[C@@H]2O[C@@]3(C)CC[C@H]4[C@H](C)CC[C@@H]1[C@@]24OO3 (single isomer, unassigned)	0.09	0.07	–
CC(C)CC[C@H]1C(=O)O[C@@H]2O[C@@]3(C)CC[C@H]4[C@H](C)CC[C@@H]1[C@@]24OO3	1.57	0.98	–
C[C@@H]1CC[C@H]2[C@@H](CCCCc3ccccc3)C(=O)O[C@@H]3O[C@@]4(C)CC[C@@H]1[C@]32OO4	1.37	3	–
CCCCCC[C@H]1C(=O)O[C@@H]2O[C@@]3(C)CC[C@H]4[C@H](C)CC[C@@H]1[C@@]24O3	–	–	Relative activity (Plasmodium falciparum [4]): 0.02; Relative activity (Plasmodium falciparum [5]): 0.07
C[C@]12CC[C@H]3CCCC[C@@]3(OO1)[C@H](OCc1ccccc1)O2	–	–	Relative activity (Plasmodium falciparum [3]): 0.03
C[C@@H]1CC[C@H]2[C@H](C)C(=O)O[C@@H]3O[C@@]4(C)CC[C@@H]1[C@]32O4	–	–	Relative activity (Plasmodium falciparum [6]): inactive; Relative activity (Plasmodium falciparum [7]): inactive
C[C@@H]1CC[C@H]2[C@@H](CCc3ccccc3)C(=O)O[C@@H]3O[C@@]4(C)CC[C@@H]1[C@]32OO4	1.69	1	–
C[C@@H]1CC[C@H]2[C@@H](C)C(=O)O[C@@H]3OC(C)(C)OO[C@@]32[C@H]1C	–	–	Relative activity (Plasmodium falciparum [3]): 0.4
C[C@@H]1CCC[C@@]23CO[C@@](C)(CC[C@@H]12)OO3	–	–	Relative activity (Plasmodium falciparum [3]): 0.37
CCC[C@H]1C(=O)O[C@@H]2O[C@@]3(C)CC[C@H]4[C@H](C)CC[C@@H]1[C@@]24OO3	5.5	12.25	–
CC(C)CC[C@H]1C(=O)O[C@@H]2O[C@@]3(C)CC[C@H]4[C@H](C)CC[C@@H]1[C@@]24O3	–	–	Relative activity (Plasmodium falciparum [4]): 0.14; Relative activity (Plasmodium falciparum [5]): 0.13
CC1CCC2C(CCCCc3ccccc3)C(=O)OC3OC4(C)CCC1C32O4 (stereo unspecified)	–	–	Relative activity (Plasmodium falciparum [6]): inactive; Relative activity (Plasmodium falciparum [7]): inactive
CC(C)[C@H]1C(=O)O[C@@H]2O[C@@]3(C)CC[C@H]4[C@H](C)CC[C@@H]1[C@@]24O3	–	–	Relative activity (Plasmodium falciparum [4]): 0.07; Relative activity (Plasmodium falciparum [5]): 0.02
C[C@@H]1CC[C@H]2[C@](C)(Br)[C@@H](Nc3ccccn3)O[C@@H]3O[C@@]4(C)CC[C@@H]1[C@]32OO4	–	–	Relative activity (Plasmodium falciparum [3]): 0.02
CCCCCCCCCCCCCC[C@H]1C(=O)O[C@@H]2O[C@@]3(C)CC[C@H]4[C@H](C)CC[C@@H]1[C@@]24OO3	0.001	0.001	–
CO[C@H]1O[C@@]2(C)CC[C@H]3CCCC[C@]31OO2	–	–	Relative activity (Plasmodium falciparum [3]): 0.11
C[C@@H]1CC[C@H]2[C@@H](CC(=O)O)C(=O)O[C@@H]3O[C@@]4(C)CC[C@@H]1[C@]32OO4	0.002	0.003	–
CO[C@]1(C)CC[C@H]2[C@H](C)CCC[C@]2(C=O)OO1	–	–	Relative activity (Plasmodium falciparum [3]): 0.001
C[C@@H]1CC[C@H]2[C@](C)(Br)[C@@H](Nc3nccs3)O[C@@H]3O[C@@]4(C)CC[C@@H]1[C@]32OO4	–	–	Relative activity (Plasmodium falciparum [3]): 0.62
C[C@@H]1CC[C@H]2CC(=O)O[C@@H]3O[C@@]4(C)CC[C@@H]1[C@@]23O4	–	–	Relative activity (Plasmodium falciparum [6]): inactive; Relative activity (Plasmodium falciparum [7]): inactive
C/C=C/CC1C(=O)O[C@@H]2O[C@@]3(C)CC[C@H]4[C@H](C)CC[C@@H]1[C@@]24OO3 (single isomer, unassigned)	0.38	0.22	–
C[C@@H]1CC[C@H]2[C@](C)(Br)[C@@H](Nc3ncccn3)O[C@@H]3O[C@@]4(C)CC[C@@H]1[C@]32OO4	–	–	Relative activity (Plasmodium falciparum [3]): 0.01
CCC[C@H]1C(=O)O[C@@H]2O[C@@]3(C)CC[C@H]4[C@H](C)CC[C@@H]1[C@@]24O3	–	–	Relative activity (Plasmodium falciparum [4]): 0.07; Relative activity (Plasmodium falciparum [5]): 0.06
C=CC[C@H]1C(=O)O[C@@H]2O[C@@]3(C)CC[C@H]4[C@H](C)CC[C@@H]1[C@@]24OO3	0.31	0.72	–
CCCCCC[C@H]1C(=O)O[C@@H]2O[C@@]3(C)CC[C@H]4[C@H](C)CC[C@@H]1[C@@]24OO3	4.67	5.5	–

SMILES	Relative activity (Plasmodium falciparum [1])	Relative activity (Plasmodium falciparum [2])	other results
CCCCC[C@H]1C(=O)O[C@@H]2O[C@@]3(C)CC[C@H]4[C@H](C)CC[C@@H]1[C@@]24OO3	3.67	8.67	–
C[C@@H]1CC[C@H]2[C@@H](CCCc3ccccc3)C(=O)O[C@@H]3O[C@@]4(C)CC[C@@H]1[C@]32OO4	6.11	4.45	–
CC(C)C[C@H]1C(=O)O[C@@H]2O[C@@]3(C)CC[C@H]4[C@H](C)CC[C@@H]1[C@@]24OO3	0.2	0.24	–
CCCCCCCCCCCCCC[C@H]1C(=O)O[C@@H]2O[C@@]3(C)CC[C@H]4[C@H](C)CC[C@@H]1[C@@]24O3	0.05	0.05	–
C[C@@H]1CC[C@H]2C(C)(C)C(=O)O[C@@H]3O[C@@]4(C)CCC1[C@]32OO4 (stereo partly specified)	0.02	0.006	–
C[C@@H]1CC[C@H]2[C@](C)(Br)[C@@H](Nc3ccccc3)O[C@@H]3O[C@@]4(C)CC[C@@H]1[C@]32OO4	–	–	Relative activity (Plasmodium falciparum [3]): 0.16
CC[C@H]1C(=O)O[C@@H]2O[C@@]3(C)CC[C@H]4[C@H](C)CC[C@@H]1[C@@]24O3	–	–	Relative activity (Plasmodium falciparum [4]): 0.001; Relative activity (Plasmodium falciparum [5]): 0.001
C[C@@H]1CC[C@H]2[C@](C)(Br)[C@@H](Nc3cccc(F)c3)O[C@@H]3O[C@@]4(C)CC[C@@H]1[C@]32OO4	–	–	Relative activity (Plasmodium falciparum [3]): 3.5
CCCC[C@H]1C(=O)O[C@@H]2O[C@@]3(C)CC[C@H]4[C@H](C)CC[C@@H]1[C@@]24OO3	0.96	1.28	–
O=C1C=C2CCCC3CC4OO[C@@]23[C@H](O1)O4 (single isomer, unassigned)	0.02	0.02	–
CCCCC[C@H]1C(=O)O[C@@H]2O[C@@]3(C)CC[C@H]4[C@H](C)CC[C@@H]1[C@@]24O3	–	–	Relative activity (Plasmodium falciparum [6]): inactive; Relative activity (Plasmodium falciparum [7]): inactive
C[C@@H]1CC[C@H]2C(C)(C)C(=O)O[C@@H]3O[C@@]4(C)CC[C@@H]1[C@]32O4	–	–	Relative activity (Plasmodium falciparum [6]): inactive; Relative activity (Plasmodium falciparum [7]): inactive
CC[C@H]1C(=O)O[C@@H]2O[C@@]3(C)CC[C@H]4[C@H](C)CC[C@@H]1[C@@]24OO3	6.42	12.26	–
CCCC[C@H]1C(=O)O[C@@H]2O[C@@]3(C)CC[C@H]4[C@H](C)CC[C@@H]1[C@@]24O3	–	–	Relative activity (Plasmodium falciparum [6]): inactive; Relative activity (Plasmodium falciparum [7]): inactive
C[C@H]1CO[C@@H]2O[C@@]3(C)CC[C@H]4CCC[C@@H]1[C@]42OO3	–	–	Relative activity (Plasmodium falciparum [3]): 4.02
CC(C)[C@H]1C(=O)O[C@@H]2O[C@@]3(C)CC[C@H]4[C@H](C)CC[C@@H]1[C@@]24OO3	2.03	0.84	–
CCCC[C@H]1C(=O)O[C@@H]2OC(C)(C)OO[C@@]23CCCC[C@@H]13	–	–	Relative activity (Plasmodium falciparum [3]): 0.1
C[C@@H]1CC[C@H]2CC(=O)O[C@@H]3O[C@@]4(C)CC[C@@H]1[C@@]23OO4	1.8	6.5	–
C[C@@H]1CC[C@H]2[C@H](C)C(=O)O[C@@H]3O[C@@]4(C)CC[C@@H]1[C@]32OO4	0.14	0.67	–
CC(C)CCC[C@H]1C(=O)O[C@@H]2O[C@@]3(C)CC[C@H]4[C@H](C)CC[C@@H]1[C@@]24O3	–	–	Relative activity (Plasmodium falciparum [6]): inactive; Relative activity (Plasmodium falciparum [7]): inactive
C[C@@H]1CC[C@H]2[C@@H](CCCc3ccccc3)C(=O)O[C@@H]3O[C@@]4(C)CC[C@@H]1[C@]32O4	–	–	Relative activity (Plasmodium falciparum [4]): 0.15; Relative activity (Plasmodium falciparum [5]): 0.15
CC1CCC2C(CCc3ccccc3)C(=O)OC3OC4(C)CCC1C32O4 (stereo unspecified)	–	–	Relative activity (Plasmodium falciparum [6]): inactive; Relative activity (Plasmodium falciparum [7]): inactive
CC12CCC3CCCC4CC(=O)OC(O1)C34OO2 (stereo unspecified)	0.24	0.96	–
CC(C)C[C@H]1C(=O)O[C@@H]2O[C@@]3(C)CC[C@H]4[C@H](C)CC[C@@H]1[C@@]24O3	–	–	Relative activity (Plasmodium falciparum [6]): inactive; Relative activity (Plasmodium falciparum [7]): inactive
C=CC[C@H]1C(=O)O[C@@H]2O[C@@]3(C)CC[C@H]4[C@H](C)CC[C@@H]1[C@@]24O3	–	–	Relative activity (Plasmodium falciparum [6]): inactive; Relative activity (Plasmodium falciparum [7]): inactive
C[C@@H]1CC[C@H]2[C@@H](C)C(=O)O[C@@H]3O[C@@]4(C)CC[C@@H]1[C@]32OO4 [ARTEMISININ]	1	1	–
CC1(C)OO[C@]23CCCC[C@H]2CC(=O)O[C@@H]3O1	–	–	Relative activity (Plasmodium falciparum [3]): 0.01

— ChEMBL document CHEMBL1126576, “Structure-activity relationships of the antimalarial agent artemisinin. 1. Synthesis and comparative molecular field analysis of C-9 analogs of artemisinin and 10-deoxoartemisinin” (1993)
